Measurements published in ChEMBL document CHEMBL1811753, “Discovery of potent and selective inhibitors of human platelet-type 12- lipoxygenase” (J Med Chem, 2011).
The source made the active and inactive calls. No cut-off for these calls is given here.

Columns and labels:
[1] = biological target: T1, Polyunsaturated fatty acid lipoxygenase ALOX15 (Homo sapiens, UniProt P16050); assay: Inhibition of human reticulocyte N-terminally His6-tagged 15-lipoxygenase-1 assessed as conjugated diene product formation using arachidonic acid by UV-vis spectrophotometer analysis
T1 sequence (P16050 whole entry): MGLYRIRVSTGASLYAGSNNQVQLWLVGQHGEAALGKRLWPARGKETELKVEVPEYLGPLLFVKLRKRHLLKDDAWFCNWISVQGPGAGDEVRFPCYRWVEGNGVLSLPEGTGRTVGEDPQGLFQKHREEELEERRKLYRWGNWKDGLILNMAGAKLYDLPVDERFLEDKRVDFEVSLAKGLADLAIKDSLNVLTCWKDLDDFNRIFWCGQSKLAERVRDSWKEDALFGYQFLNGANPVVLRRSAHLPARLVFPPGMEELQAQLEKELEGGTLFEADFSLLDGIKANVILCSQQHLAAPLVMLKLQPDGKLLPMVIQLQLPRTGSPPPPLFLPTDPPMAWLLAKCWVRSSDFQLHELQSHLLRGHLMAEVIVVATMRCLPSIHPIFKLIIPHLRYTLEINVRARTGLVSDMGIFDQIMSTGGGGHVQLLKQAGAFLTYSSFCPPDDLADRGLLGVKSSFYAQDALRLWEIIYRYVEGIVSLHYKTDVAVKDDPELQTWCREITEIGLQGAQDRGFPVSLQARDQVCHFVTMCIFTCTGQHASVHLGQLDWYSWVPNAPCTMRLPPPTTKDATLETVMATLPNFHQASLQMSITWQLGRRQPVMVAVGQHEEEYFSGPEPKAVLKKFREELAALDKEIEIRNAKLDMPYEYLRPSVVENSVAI

Homo sapiens [2] = species on record: Homo sapiens; assay: Selectivity ratio of IC50 for human reticulocyte N-terminally His6-tagged 15-lipoxygenase-2 to IC50 for human platelet-type N-terminally His6-tagged 12-lipoxygenase
[3] = biological target: T2, Polyunsaturated fatty acid lipoxygenase ALOX15B (Homo sapiens, UniProt O15296); assay: Inhibition of human reticulocyte N-terminally His6-tagged 15-lipoxygenase-2 assessed as conjugated diene product formation using arachidonic acid by UV-vis spectrophotometer analysis
T2 sequence (O15296 whole entry): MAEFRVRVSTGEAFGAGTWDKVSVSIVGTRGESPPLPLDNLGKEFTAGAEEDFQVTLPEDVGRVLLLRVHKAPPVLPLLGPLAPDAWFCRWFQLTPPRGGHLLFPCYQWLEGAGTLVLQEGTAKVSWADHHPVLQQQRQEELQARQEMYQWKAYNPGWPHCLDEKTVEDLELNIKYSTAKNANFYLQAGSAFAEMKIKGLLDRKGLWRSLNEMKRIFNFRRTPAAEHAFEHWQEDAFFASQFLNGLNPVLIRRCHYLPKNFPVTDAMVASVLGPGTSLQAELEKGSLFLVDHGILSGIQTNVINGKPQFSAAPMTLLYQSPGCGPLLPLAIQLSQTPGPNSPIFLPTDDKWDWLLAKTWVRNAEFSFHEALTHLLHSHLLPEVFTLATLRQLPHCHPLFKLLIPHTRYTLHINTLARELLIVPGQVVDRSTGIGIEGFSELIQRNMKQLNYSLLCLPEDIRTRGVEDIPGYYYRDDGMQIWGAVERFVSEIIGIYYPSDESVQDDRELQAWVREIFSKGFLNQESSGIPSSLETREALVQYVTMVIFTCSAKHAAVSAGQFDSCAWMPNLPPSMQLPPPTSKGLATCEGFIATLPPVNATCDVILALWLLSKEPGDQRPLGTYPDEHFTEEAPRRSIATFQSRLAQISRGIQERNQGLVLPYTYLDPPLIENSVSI

Homo sapiens [4] = species on record: Homo sapiens; assay: Selectivity ratio of IC50 for human reticulocyte N-terminally His6-tagged 15-lipoxygenase-1 to IC50 for human platelet-type N-terminally His6-tagged 12-lipoxygenase
Homo sapiens [5] = species on record: Homo sapiens; assay: Selectivity ratio of IC50 for human 5-lipoxygenase to IC50 for human platelet-type N-terminally His6-tagged 12-lipoxygenase
[6] = biological target: T3, Polyunsaturated fatty acid 5-lipoxygenase (Homo sapiens, UniProt P09917); assay: Inhibition of human 5-lipoxygenase assessed as conjugated diene product formation using arachidonic acid by UV-vis spectrophotometer analysis
T3 sequence (P09917 whole entry): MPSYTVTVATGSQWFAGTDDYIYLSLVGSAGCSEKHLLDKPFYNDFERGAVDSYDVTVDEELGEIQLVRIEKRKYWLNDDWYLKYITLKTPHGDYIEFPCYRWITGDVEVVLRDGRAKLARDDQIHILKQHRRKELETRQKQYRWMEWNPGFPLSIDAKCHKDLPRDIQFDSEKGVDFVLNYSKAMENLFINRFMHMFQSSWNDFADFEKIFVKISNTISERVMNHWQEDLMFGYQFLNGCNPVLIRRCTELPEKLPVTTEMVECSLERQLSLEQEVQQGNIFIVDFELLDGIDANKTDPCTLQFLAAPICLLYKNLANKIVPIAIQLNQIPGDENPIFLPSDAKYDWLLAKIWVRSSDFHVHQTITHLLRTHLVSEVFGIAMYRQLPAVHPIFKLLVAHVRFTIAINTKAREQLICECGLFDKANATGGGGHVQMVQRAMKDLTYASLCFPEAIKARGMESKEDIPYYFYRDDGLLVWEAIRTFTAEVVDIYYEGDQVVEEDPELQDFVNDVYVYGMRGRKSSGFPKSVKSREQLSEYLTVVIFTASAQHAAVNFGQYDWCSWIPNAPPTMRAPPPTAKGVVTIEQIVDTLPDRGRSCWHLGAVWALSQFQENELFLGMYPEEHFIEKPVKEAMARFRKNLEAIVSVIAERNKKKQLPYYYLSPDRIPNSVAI

[7] = biological target: T4, Polyunsaturated fatty acid lipoxygenase ALOX12 (Homo sapiens, UniProt P18054); assay: Inhibition of human platelet-type 12-lipoxygenase
T4 sequence (P18054 whole entry): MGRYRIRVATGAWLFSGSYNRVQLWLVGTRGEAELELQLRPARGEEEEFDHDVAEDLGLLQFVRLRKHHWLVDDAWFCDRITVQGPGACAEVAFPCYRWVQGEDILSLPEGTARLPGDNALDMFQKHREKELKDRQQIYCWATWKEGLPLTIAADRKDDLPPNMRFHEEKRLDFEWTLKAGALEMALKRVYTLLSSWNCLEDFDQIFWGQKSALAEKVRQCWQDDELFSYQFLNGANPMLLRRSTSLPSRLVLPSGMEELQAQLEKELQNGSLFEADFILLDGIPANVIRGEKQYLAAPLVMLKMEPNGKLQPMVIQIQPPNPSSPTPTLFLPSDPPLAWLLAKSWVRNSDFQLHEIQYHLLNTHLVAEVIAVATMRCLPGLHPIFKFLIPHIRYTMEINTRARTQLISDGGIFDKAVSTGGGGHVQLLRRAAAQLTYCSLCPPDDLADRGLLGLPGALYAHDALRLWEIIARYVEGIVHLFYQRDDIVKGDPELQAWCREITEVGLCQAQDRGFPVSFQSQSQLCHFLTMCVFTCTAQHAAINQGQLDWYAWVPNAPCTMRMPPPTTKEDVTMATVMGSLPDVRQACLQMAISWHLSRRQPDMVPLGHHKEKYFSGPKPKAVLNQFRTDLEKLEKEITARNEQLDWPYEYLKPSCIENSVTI

[8] = biological target: T1, Polyunsaturated fatty acid lipoxygenase ALOX15
[9] = biological target: T4, Polyunsaturated fatty acid lipoxygenase ALOX12; assay: Inhibition of human platelet-type N-terminally His6-tagged 12-lipoxygenase assessed as conjugated diene product formation using arachidonic acid by UV-vis spectrophotometer analysis
[10] = system: Radical scavenging activity; assay: Antioxidant activity assessed as DPPH radical scavenging activity at 5 uM; format: functional
[11] = biological target: T5, Polyunsaturated fatty acid lipoxygenase ALOX12 (Homo sapiens) (UniProt P18054); assay: Uncompetitive inhibition of human platelet-type N-terminally His6-tagged 12-lipoxygenase assessed as 12-HPETE formation using arachidonic acid by Michaelis-Menten equation analysis
T5 sequence (whole entry): T4 sequence (P18054 whole entry)

[12] = biological target: T5, Polyunsaturated fatty acid lipoxygenase ALOX12 (Homo sapiens); assay: Competitive inhibition of human platelet-type N-terminally His6-tagged 12-lipoxygenase assessed as 12-HPETE formation using arachidonic acid by Michaelis-Menten equation analysis
[13] = biological target: T5, Polyunsaturated fatty acid lipoxygenase ALOX12 (Homo sapiens); settings: 10 uM
[14] = biological target: T5, Polyunsaturated fatty acid lipoxygenase ALOX12 (Homo sapiens); settings: 100 uM
[15] = biological target: T5, Polyunsaturated fatty acid lipoxygenase ALOX12 (Homo sapiens); settings: 10 uM; remark: listed apart in the source
[16] = biological target: T4, Polyunsaturated fatty acid lipoxygenase ALOX12; assay: cell-based

## CCC(=O)NC(c1ccco1)c1cc(Cl)c2cccnc2c1O (configuration not stated)
[1]
  IC50: > 50 µM
Homo sapiens [2]
  Ratio IC50: > 100
[3]
  IC50: > 100 µM
Homo sapiens [4]
  Ratio IC50: > 50
Homo sapiens [5]
  Ratio IC50: > 100
[6]
  IC50: > 100 µM

## CC(C)(c1ccc(O)c(Br)c1)c1cc(Br)c(O)c(Br)c1
[7]
  IC50: 5 µM
[8]
  IC50: 7 µM

## CC(=O)NC(c1ccco1)c1cc(Cl)c2ccc(Cl)nc2c1O (configuration not stated)
[9]
  IC50: > 75 µM

## O=C(NC(c1ccco1)c1cc(Cl)c2cccnc2c1O)c1ccccc1 (configuration not stated)
[9]
  IC50: > 25 µM

## CCC(=O)NC(c1ccc(F)cc1)c1cc(Cl)c2cccnc2c1O (configuration not stated)
[9]
  IC50: > 50 µM

## CCC(=O)NC(c1ccco1)c1cc(Cl)c2cccnc2c1OC (configuration not stated)
[9]
  IC50: > 75 µM

## CC(=O)NC(c1ccco1)c1cc(Cl)c2ccccc2c1O (configuration not stated)
[9]
  IC50: > 75 µM

## Oc1c(Cl)cc(Cl)c2cccnc12 [CHLOROXINE]
[1]
  IC50: 2.4 µM
[3]
  IC50: 28 µM
[9]
  IC50: 1.9 µM
[6]
  IC50: 3.6 µM

## CC(=O)NC(c1ccco1)c1cc(Cl)c2ccc(N(C)C)nc2c1O (configuration not stated)
[9]
  IC50: > 75 µM

## Oc1c(Br)c(Br)c(Br)c(Br)c1Oc1ccc(Br)cc1Br
[7]
  IC50: 1.8 µM
[8]
  IC50: 0.7 µM

## CC(Cc1ccc(O)c(O)c1)C(C)Cc1ccc(O)c(O)c1 (configuration not stated)
[10]
  Activity: Active

## CC(=O)NC(c1cccs1)c1cc(Cl)c2cccnc2c1O (configuration not stated)
[1]
  IC50: > 25 µM
Homo sapiens [4]
  Ratio IC50: 25
Homo sapiens [5]
  Ratio IC50: > 100
[6]
  IC50: > 100 µM
[11]
  Kiuc: 0.8 µM
[12]
  Kic: 0.7 µM

## CC(=O)NC(C)c1cc(Cl)c2cccnc2c1O (configuration not stated)
[9]
  IC50: > 150 µM

## CCC(=O)NC(c1cccs1)c1cc([N+](=O)[O-])c2cccnc2c1O (configuration not stated)
[10]
  Activity: inactive
[13]
  inhibition: 68.9%
[1]
  IC50: > 25 µM
[14]
  inhibition: Active
[15]
  inhibition: 70%
[16]
  IC50: 15 µM

## CCC(=O)NC(c1ccco1)c1cc(Cl)c2c(c1O)NCCC2 (configuration not stated)
[9]
  IC50: 3 µM

## CCC(=O)NC(C)c1cc(Cl)c2cccnc2c1O (configuration not stated)
[9]
  IC50: > 50 µM

## CC(=O)NCc1cc(Cl)c2cccnc2c1O
[9]
  IC50: > 150 µM

## CCC(=O)NC(c1ccc(Br)o1)c1cc(Cl)c2cccnc2c1O (configuration not stated)
[9]
  IC50: > 75 µM

## CC(=O)NC(C)c1cc(F)c2cccnc2c1O (configuration not stated)
[9]
  IC50: > 75 µM

## CCC(=O)NC(c1cccs1)c1ccc2cccnc2c1O (configuration not stated)
[1]
  IC50: > 50 µM
Homo sapiens [2]
  Ratio IC50: > 29
[3]
  IC50: > 100 µM
Homo sapiens [4]
  Ratio IC50: > 15
Homo sapiens [5]
  Ratio IC50: > 29
[6]
  IC50: > 100 µM

## Cc1ccc(C(=O)NC(c2ccco2)c2cc(Cl)c3cccnc3c2O)cc1 (configuration not stated)
[9]
  IC50: > 25 µM

## CC(=O)NC(c1ccco1)c1cc(Cl)c2ccc(N3CCCCC3)nc2c1O (configuration not stated)
[9]
  IC50: > 75 µM
